This note sets out measurements from paper PMC2637266, “Quantification of gamma-secretase modulation differentiates inhibitor compound selectivity between two substrates Notch and amyloid precursor protein” (Molecular Brain, 2008).

Test [1] deals with T1, γ-secretase cleavage of Notch N100-Flag (Homo sapiens, UniProt P49768).
T1 construct: substrate made in E. coli
Description: In vitro γ-secretase activity assay, NICD generated from N100-Flag, Western blot densitometry. Format: biochemical. The following applies: for NICD generation in vitro, dose response: N100-Flag, increasing concentrations. Here is the method: To characterize the direct effect of two γ-secretase inhibitors cpd E and DAPT on APP/Notch cleavage, a conventional in vitro γ-secretase assay to quantify their inhibitory potency was used. The incubation of γ-secretase complex with purified substrates at 37°C for 4 hr was followed by Western Blot (WB) to determine the quantity of newly generated NICD. A newly generated band that corresponds to the predicted size of the NICD-Flag was detected (Fig. 1A and 1B).
Figure 1 Generation of NICD and Aβ from purified APP and Notch substrate C100 and N100 in an in vitro γ-secretase activity assay. The E. coli generated APP- and Notch-based, 100-residue γ-secretase substrates C100-Flag and N100-Flag were mixed with the membrane vesicles solubilized in CHAPSO after DMSO or compounds were added. The mixture was incubated at 37°C for 4 hours. A. A dose-dependent inhibition of NICD generation by DAPT. Generation of NICD was detected by Western blot (WB) with antibody 1744 specifically recognizing N-terminus of NICD. B. Generation of NICD was inhibited in the presence of 100 nM of cpd E. C. Levels of NICD determined by WB were quantified by densitometry (dotted line). Levels of Aβ generated from the γ-secretase cleavage of C100 in the presence of DAPT were determined by ELISA (solid line). […] D. NICD (dotted line) and Aβ (solid line) generation in the presence of cpd E were compared.
The E. coli generated APP- and Notch-based, 100-residue γ-secretase substrates C100-Flag and N100-Flag were purified as previously described. C100-Flag substrate contains an initiating methionine, the 99 C-terminal residues of APP that start at the […], and a Flag tag. N100-Flag substrate contains a similar initiating methionine, 99 amino acids that start at the TACE cleavage site, and a Flag tag. The membrane vesicles were solubilized in 1% CHAPSO-HEPES and diluted in a final concentration of 0.2% CHAPSO-HEPES. Phosphatidylethanolamine (PE) and phosphatidylcholine (PC) were added to the final concentration of 0.02% PE and 0.08% PC. After adding DMSO or test compounds to the solubilized γ-secretase complex, substrate C100-Flag or N100-Flag was added to the mixture, then followed by incubation at 37°C for 4 hours. Two compounds have been used in this study, compound E (cpd E), {(S,S)-2-[2-(3,5-Difluorophenyl)-acetylamino]-N-(1-methyl-2-oxo-5-phenyl-2,3-dihydro-1H-benzo [e] [1,4] diazepin-3-yl)-propionamide} [57] and DAPT {N-[N-(3,5-Difluorophenacetyl-L-alanyl)]-S-phenylglycine t-Butyl Ester} [79]. Cpd E was provided by Dr. Michael Wolfe.

Test [2] has as its system NICD dependent luciferase activity (Hes-1 reporter). Put plainly: Hes-Luc luciferase reporter assay in HEK293 cells co-transfected with NotchΔE. The class given is cell-based, human. The following applies: at concentrations that completely blocked Aβ generation. Here is the method: Figure 2 Generation of NICD and Aβ from NotchΔE and APP expressing cells. A. Twenty four hrs after the construct carrying NotchΔE was transfected into APP expressing HEK293 cells, cells were treated with DAPT or cpd E for 8 hr and lysed for WB with antibody 1744 to specifically detect the N-terminus of NICD. Bottom panel, the antibody against α-tubulin was applied to normalize the amounts of lysates used for WB. B. Levels of NICD determined by WB were quantified by densitometry (dotted line). Levels of Aβ generated from the γ-secretase cleavage of APP in the presence of DAPT were determined by ELISA. […] C. NICD (dotted line) and Aβ (solid line) production from cpd E-treated cells were compared. […] D. A luciferase reporter construct driven by HES1 promoter was transfected into HEK293 cells followed by treatment with cpd E or DAPT.
Semi-quantification of NICD levels was detected by WB, and the inhibition profile of DAPT (Fig. 2B) and cpd E (Fig. 2C) were compared on NICD and Aβ generation in cultured cells. […] Since Notch signaling and levels of NICD can be examined by quantifying the expression of the Notch target gene, a Hes-1 reporter construct (Hes-Luc) was generated by insertion of three Su(H) binding sequences in the pGL3-pro luciferase reporter vector. […]
(In general: A reporter such as luciferase makes a cellular process visible.)

Entries after “also recorded” stand apart in the source; their conditions may differ.

Take `C[C@H](NC(=O)Cc1cc(F)cc(F)c1)C(=O)N[C@H]1N=C(c2ccccc2)c2ccccc2N(C)C1=O` [cpd E, (S,S)-2-[2-(3,5-Difluorophenyl)-acetylamino]-N-(1-methyl-2-oxo-5-phenyl-2,3-dihydro-1H-benzo [e] [1,4]diazepin-3-yl)-propionamide]: the “NICD generation in vitro” value in test [1] (100 nM (0.1 μM), compared to DMSO controls) is “inhibited; also recorded: only minor reduction of NICD levels; also recorded: only had minor effect on Notch cleavage and NICD generation”. In addition, in test [1], the “NICD generation in vitro, dose response” value is “clear reduction of NICD generation”. The luciferase activities remained entry in test [2] is on record as “about 50%”.

Consider `C[C@H](NC(=O)Cc1cc(F)cc(F)c1)C(=O)N[C@H](C(=O)OC(C)(C)C)c1ccccc1` [DAPT, N-[N-(3,5-Difluorophenacetyl-L-alanyl)]-S-phenylglycine t-Butyl Ester], for which the “γ-secretase cleavage of Notch in vitro at low concentrations” value in test [1] (0.1 nM to 10 nM) is “did not inhibit”. Moreover, the “Notch cleavage reduced to, in vitro γ-secretase activity assay” value in test [1] (1 μM or higher) is recorded as “about 50%”. In test [1] (10 and 100 μM), the “NICD generation blocked in vitro” value is ~ 60%. Moreover, the “NICD generation in vitro, dose response” value in test [1] is on record as “clear reduction of NICD generation”. Moreover, the luciferase activities remained result in test [2] was “about 50%”.
